Data: patent US9249118B2, “Purifying crude furan 2,5-dicarboxylic acid by hydrogenation” (Eastman Chemical Company, priority 2012, dated 2016)

Assay: solubility of FDCA in water at different temperatures (FIG. 1)
Type: physicochemical
Settings: ambient pressure, as the water temperature increases beyond 130° C. (FIG. 1)
Procedure: FIG. 1 depicts the solubility of FDCA in water at different temperatures.
Suitable dissolution temperatures are those effective to dissolve the desired amount of FDCA solids into solution. The hydrogenation solvent composition may be added at (by pre-heating) or heated in the dissolution zone to a temperature of at least 120° C. under a pressure and time sufficient to allow for at least 80 wt. % dissolution, although to reduce the time required for dissolution, it is desirable that the hydrogenation solvent composition temperature is at least 130° C., or at least 135° C., or at least 140° C., or at least 150° C.

For `O=C(O)c1ccc(C(=O)O)o1` [FDCA, Furan 2,5-dicarboxylic acid], the “solubility of FDCA in water” value was “increases dramatically”.
